In ChEMBL document CHEMBL1151334, “Arugosin F: a new antifungal metabolite from the coprophilous fungus Ascodesmis sphaerospora” (1998):

Columns and labels:
Assay type in all cases: functional
[1] = tested on: Ascobolus; experiment: Antifungal activity against Ascobolus furfuraceus NRRL 6460 at 200 ug/disk by paper disk assay
[2] = tested on: Bacillus subtilis; experiment: Antibacterial activity against Bacillus subtilis ATCC 6051 at 200 ug/disk by standard disk assay; details: read-out: IZ
[3] = tested on: Sordaria fimicola; experiment: Antifungal activity against Sordaria fimicola NRRL 6459 at 200 ug/disk by paper disk assay
[4] = tested on: Staphylococcus aureus; experiment: Antibacterial activity against Staphylococcus aureus ATCC 29213 at 200 ug/disk by standard disk assay; details: read-out: IZ

Structure (SMILES)	inhibition at 200 µg/disc [1] [%]	zone of inhibition at 200 µg/disc [2] [mm]	Activity [3] [%]	zone of inhibition at 200 µg/disc [4] [mm]
Cc1cc(CO)c2c(=O)c3c(O)cccc3oc2c1	20	7	33	
Cc1cc(O)c2c(c1)C(O)Oc1cccc(O)c1C2=O (configuration not stated) [ARUGOSIN F]	100	15	50	7
